Data from patent US9586951B2 (FUJIFILM Corporation, priority 2013, dated 2017).

Target: T1, ATM (Homo sapiens, UniProt Q13315)
T1 construct: detecting phosphorylation of Chk2 in a human non-small cell lung cancer cell line NCI-H460 (ATCC company); host or cells: NCI-H460 human non-small cell lung cancer cells
Assay: ATM inhibition test (phosphorylation of Chk2 generated by ionizing radiation, AlphaScreen SureFire)
Assay type: cell-based
Settings: phosphorylated Chk2 in NCI-H460 cells, ionizing radiation 8Gy, 1 hour after test compound treatment; read-out: ATM inhibitory activity
Experimental: ATM inhibitory effects of a test compound were measured by detecting phosphorylation of Chk2 in a human non-small cell lung cancer cell line NCI-H460 (ATCC company). The level of phosphorylated Chk2 generated by an ionizing radiation was measured using AlphaScreen SureFire (TGR Biosciences).
The cells were seeded by 40000 cells per well in 96-well CellBIND® plates (Corning International Inc.), and incubated at 37° C. overnight in 5% CO2. […] 1 hour after a test compound treatment, half of the plates were irradiated with ionizing radiation 8Gy (Faxitron Bioptics, LLC, RX-650 type). The plates irradiated with ionizing radiation and the plates not being irradiated with ionizing radiation were incubated at 37° C. for 1 hour in 5% CO2. […] Subsequent operations were performed according to the instruction book of AlphaScreen SureFire. […] The inhibition ratio was calculated by the following equation. Inhibition ratio (%)=((signal of drug untreated wells in the plates irradiated with ionizing radiation−signal of drug treated wells in the plates irradiated with ionizing radiation)/(signal of drug untreated wells in the plates irradiated with ionizing radiation−signal of drug untreated wells in the plates not being irradiated with ionizing radiation))×100

T1 sequence (Q13315 whole entry): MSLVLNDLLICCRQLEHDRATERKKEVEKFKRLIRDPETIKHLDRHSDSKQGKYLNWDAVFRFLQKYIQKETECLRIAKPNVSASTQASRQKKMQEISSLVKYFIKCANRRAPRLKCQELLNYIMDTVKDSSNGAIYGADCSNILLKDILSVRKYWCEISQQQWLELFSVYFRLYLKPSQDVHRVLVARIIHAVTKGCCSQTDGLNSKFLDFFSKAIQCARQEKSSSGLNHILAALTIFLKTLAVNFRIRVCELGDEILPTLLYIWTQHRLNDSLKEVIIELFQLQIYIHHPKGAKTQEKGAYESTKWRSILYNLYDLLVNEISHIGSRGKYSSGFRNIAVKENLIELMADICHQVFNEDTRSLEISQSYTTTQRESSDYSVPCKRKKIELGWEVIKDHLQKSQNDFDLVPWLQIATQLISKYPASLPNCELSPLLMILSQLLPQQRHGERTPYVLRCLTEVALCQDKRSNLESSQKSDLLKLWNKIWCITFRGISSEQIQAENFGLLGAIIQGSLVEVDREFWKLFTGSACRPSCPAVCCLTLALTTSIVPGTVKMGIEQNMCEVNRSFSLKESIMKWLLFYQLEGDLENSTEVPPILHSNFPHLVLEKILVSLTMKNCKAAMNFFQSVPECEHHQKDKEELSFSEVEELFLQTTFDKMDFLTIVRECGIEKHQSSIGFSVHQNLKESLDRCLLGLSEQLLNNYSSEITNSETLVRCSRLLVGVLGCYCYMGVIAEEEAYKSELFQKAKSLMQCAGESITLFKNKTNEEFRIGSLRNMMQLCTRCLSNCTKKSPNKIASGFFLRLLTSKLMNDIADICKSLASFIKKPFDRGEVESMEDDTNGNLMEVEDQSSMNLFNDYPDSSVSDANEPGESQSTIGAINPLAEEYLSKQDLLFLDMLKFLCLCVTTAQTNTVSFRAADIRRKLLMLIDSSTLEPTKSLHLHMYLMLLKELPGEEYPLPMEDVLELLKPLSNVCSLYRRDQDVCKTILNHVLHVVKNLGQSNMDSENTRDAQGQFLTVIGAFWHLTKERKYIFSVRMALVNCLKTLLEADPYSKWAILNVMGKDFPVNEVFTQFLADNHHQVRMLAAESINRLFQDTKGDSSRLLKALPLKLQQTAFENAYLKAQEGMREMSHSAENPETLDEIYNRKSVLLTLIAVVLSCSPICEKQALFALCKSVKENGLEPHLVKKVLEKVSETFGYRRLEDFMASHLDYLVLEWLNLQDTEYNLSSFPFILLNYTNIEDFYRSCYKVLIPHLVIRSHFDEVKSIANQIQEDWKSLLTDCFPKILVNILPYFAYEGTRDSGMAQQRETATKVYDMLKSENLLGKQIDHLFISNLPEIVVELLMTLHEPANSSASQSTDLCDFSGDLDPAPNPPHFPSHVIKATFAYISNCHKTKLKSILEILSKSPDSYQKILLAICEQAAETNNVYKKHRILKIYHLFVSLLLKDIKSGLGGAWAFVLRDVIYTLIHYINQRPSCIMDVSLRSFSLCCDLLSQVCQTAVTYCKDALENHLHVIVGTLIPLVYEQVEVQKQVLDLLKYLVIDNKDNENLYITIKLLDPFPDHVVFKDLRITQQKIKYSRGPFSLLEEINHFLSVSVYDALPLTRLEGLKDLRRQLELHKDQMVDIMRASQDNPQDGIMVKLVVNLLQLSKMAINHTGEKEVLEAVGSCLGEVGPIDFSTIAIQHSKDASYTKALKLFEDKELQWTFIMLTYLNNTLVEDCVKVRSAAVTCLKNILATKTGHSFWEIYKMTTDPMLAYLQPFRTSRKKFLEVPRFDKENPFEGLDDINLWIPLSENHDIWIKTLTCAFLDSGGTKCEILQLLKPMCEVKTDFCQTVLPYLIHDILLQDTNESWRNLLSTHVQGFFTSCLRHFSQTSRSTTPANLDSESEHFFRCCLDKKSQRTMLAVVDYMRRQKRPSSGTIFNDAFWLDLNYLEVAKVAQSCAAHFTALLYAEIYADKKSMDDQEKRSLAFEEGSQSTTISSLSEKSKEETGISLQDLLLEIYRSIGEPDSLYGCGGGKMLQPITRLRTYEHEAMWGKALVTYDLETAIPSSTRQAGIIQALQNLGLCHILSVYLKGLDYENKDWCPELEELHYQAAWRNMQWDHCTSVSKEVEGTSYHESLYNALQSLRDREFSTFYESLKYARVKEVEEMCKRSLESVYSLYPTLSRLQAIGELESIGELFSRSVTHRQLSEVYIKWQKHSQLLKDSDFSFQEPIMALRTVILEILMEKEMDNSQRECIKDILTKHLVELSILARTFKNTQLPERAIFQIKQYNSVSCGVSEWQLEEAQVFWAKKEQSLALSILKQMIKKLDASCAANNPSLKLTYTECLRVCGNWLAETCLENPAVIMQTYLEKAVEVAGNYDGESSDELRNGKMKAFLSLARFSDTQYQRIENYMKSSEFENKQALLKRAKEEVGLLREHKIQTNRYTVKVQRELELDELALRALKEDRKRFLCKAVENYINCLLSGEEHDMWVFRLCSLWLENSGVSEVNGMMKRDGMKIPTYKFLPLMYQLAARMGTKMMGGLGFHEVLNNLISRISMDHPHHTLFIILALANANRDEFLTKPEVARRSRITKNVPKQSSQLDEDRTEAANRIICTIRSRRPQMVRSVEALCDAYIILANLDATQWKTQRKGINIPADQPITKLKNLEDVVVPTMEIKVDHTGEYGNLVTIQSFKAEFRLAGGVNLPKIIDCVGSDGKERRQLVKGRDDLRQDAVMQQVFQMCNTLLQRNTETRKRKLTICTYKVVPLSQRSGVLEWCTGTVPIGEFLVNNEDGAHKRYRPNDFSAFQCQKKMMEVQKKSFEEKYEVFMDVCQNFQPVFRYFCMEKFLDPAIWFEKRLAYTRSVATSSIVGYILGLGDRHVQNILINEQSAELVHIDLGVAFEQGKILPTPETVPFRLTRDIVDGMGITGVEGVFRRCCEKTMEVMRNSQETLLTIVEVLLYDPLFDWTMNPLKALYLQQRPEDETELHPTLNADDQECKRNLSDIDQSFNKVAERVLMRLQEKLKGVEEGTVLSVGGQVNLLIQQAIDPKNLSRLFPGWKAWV

Structure (SMILES)	IC50 [nM]
CNCC(Nc1ccc2c(c1)Sc1cccc(-c3cc(N4CCOCC4)cc(=O)[nH]3)c1S2)c1cccc(C)n1 (single isomer, unassigned) [Example 1-19-4-2, 6-(7-((2-(Methylamino)-1-(6-methylpyridin-2-yl)ethyl)amino)thianthren-1-yl)-4-morpholinopyridin-2(1H)-one]	500 to 2000
CC1CCCCN1CC(CO)Nc1ccc2c(c1)Sc1cccc(-c3cc(N4CCOCC4)cc(=O)[nH]3)c1S2 (single isomer, unassigned) [Example 1-37-6, 6-(7-((1-Hydroxy-3-(2-methylpiperidin-1-yl)propan-2-yl)amino)thianthren-1-yl)-4-morpholino pyridin-2(1H)-one]	100 to 500
CC1CCCCN1CC(CO)Nc1ccc2c(c1)Sc1cccc(-c3cc(N4CCOCC4)cc(=O)[nH]3)c1S2 (single isomer, unassigned) [Example 1-37-7, 6-(7-((1-Hydroxy-3-(2-methylpiperidin-1-yl)propan-2-yl)amino)thianthren-1-yl)-4-morpholino pyridin-2(1H)-one]	500 to 2000
O=c1cc(N2CCOCC2)cc(-c2cccc3c2Sc2ccc(NC(CF)CN4CCOCC4)cc2S3)[nH]1 (single isomer, unassigned) [Example 1-41-1-3, 6-(7-((1-fluoro-3-morpholinopropan-2-yl)amino)thianthren-1-yl)-4-morpholinopyridin-2(1H)-one]	100 to 500
Cc1ccc(C(CCCN(C)C)Nc2ccc3c(c2)Sc2cccc(-c4cc(N5CCOCC5)cc(=O)[nH]4)c2S3)nc1 (single isomer, unassigned) [Example 1-51-4, 6-(7-((4-(Dimethylamino)-1-(5-methylpyridin-2-yl)butyl)amino)thianthren-1-yl)-4-morpholino pyridin-2(1H)-one]	100 to 500
Cc1ccc(C(Nc2ccc3c(c2)Sc2cccc(-c4cc(N5CCOCC5)cc(=O)[nH]4)c2S3)[C@@H]2CCCN2C)nc1 (single isomer, unassigned) [Example 1-56-2]	100 to 500
Cc1ccc(C(Nc2ccc3c(c2)Sc2cccc(-c4cc(N5CCOCC5)cc(=O)[nH]4)c2S3)[C@H]2CCCN2C)nc1 (single isomer, unassigned) [Example 1-56-4]	100 to 500
Cc1ccc(C(Nc2ccc3c(c2)Sc2cccc(-c4cc(N5CCOCC5)cc(=O)[nH]4)c2S3)[C@H]2CCN(C)C2)nc1 (single isomer, unassigned) [Example 1-56-14]	< 100
Cc1ccc(C(Nc2ccc3c(c2)Sc2cccc(-c4cc(N5CCOCC5)cc(=O)[nH]4)c2S3)[C@H]2CCN(C)C2)nc1 (single isomer, unassigned) [Example 1-56-15]	< 100
Cc1ccc(C(Nc2ccc3c(c2)Sc2cccc(-c4cc(N5CCOCC5)cc(=O)[nH]4)c2S3)[C@@H]2CCN(C)C2)nc1 (single isomer, unassigned) [Example 1-56-16]	< 100
Cc1cccc(C(C)Nc2ccc3c(c2)Cc2cccc(-c4cc(N5CCOCC5)cc(=O)[nH]4)c2O3)n1 (single isomer, unassigned) [Example 2-14-85-1, 6-(7-((1-(6-methylpyridin-2-yl)ethyl)amino)-9H-xanthen-4-yl)-4-morpholinopyridin-2(1H)-one]	100 to 500
COc1ccnc(C(C)Nc2ccc3c(c2)Cc2cccc(-c4cc(N5CCOCC5)cc(=O)[nH]4)c2O3)c1 (single isomer, unassigned) [Example 2-14-86-1, 6-(7-((1-(4-methoxypyridin-2-yl)ethyl)amino)-9H-xanthen-4-yl)-4-morpholinopyridin-2(1H)-one]	100 to 500
CC(Nc1ccc2c(c1)Cc1cccc(-c3cc(N4CCOCC4)cc(=O)[nH]3)c1O2)c1cccc(F)n1 (single isomer, unassigned) [Example 2-14-87-2, 6-(7-((1-(6-fluoropyridin-2-yl)ethyl)amino)-9H-xanthen-4-yl)-4-morpholinopyridin-2(1H)-one]	100 to 500

Other lines, results leading:

IC50 [nM]	Structure (SMILES)
< 100	Cc1ccc(C(CCN(C)C)Nc2ccc3c(c2)Sc2cccc(-c4cc(N5CCOCC5)cc(=O)[nH]4)c2S3)nc1 (single isomer, unassigned) [Example 1-51-5, 6-(7-((3-(Dimethylamino)-1-(5-methylpyridin-2-yl)propyl)amino)thianthren-1-yl)-4-morpholino pyridin-2 (1H)-one]
< 100	Cc1ccc(C(CCN2CCCCC2)Nc2ccc3c(c2)Sc2cccc(-c4cc(N5CCOCC5)cc(=O)[nH]4)c2S3)nc1 (single isomer, unassigned) [Example 1-51-6, 6-(7-((1-(5-Methylpyridin-2-yl)-3-(piperidin-1-yl)propyl)amino)thianthren-1-yl)-4-morpholino pyridin-2(1H)-one]
< 100	Cc1ccc(C(CCN2CCOCC2)Nc2ccc3c(c2)Sc2cccc(-c4cc(N5CCOCC5)cc(=O)[nH]4)c2S3)nc1 (single isomer, unassigned) [Example 1-51-7, 6-(7-((1-(5-Methylpyridin-2-yl)-3-morpholinopropyl)amino)thianthren-1-yl)-4-morpholino pyridin-2(1H)-one]
< 100	COC1CN(CCC(Nc2ccc3c(c2)Sc2cccc(-c4cc(N5CCOCC5)cc(=O)[nH]4)c2S3)c2ccc(C)cn2)C1 (single isomer, unassigned) [Example 1-51-8, 6-(7-((3-(3-Methoxyazetidin-1-yl)-1-(5-methylpyridin-2-yl)propyl)amino)thianthren-1-yl)-4-morpholino pyridin-2 (1H)-one]
< 100	CCN(C)CCC(Nc1ccc2c(c1)Sc1cccc(-c3cc(N4CCOCC4)cc(=O)[nH]3)c1S2)c1ccc(C)cn1 (single isomer, unassigned) [Example 1-51-9, 6-(7-((3-(Ethyl(methyl)amino)-1-(5-methylpyridin-2-yl)propyl)amino)thianthren-1-yl)-4-morpholino pyridin-2 (1H)-one]
< 100	CCN(C)CCC(Nc1ccc2c(c1)Sc1cccc(-c3cc(N4CCOCC4)cc(=O)[nH]3)c1S2)c1cnc(C)cn1 (single isomer, unassigned) [Example 1-51-10, 6-(7-((3-(Ethyl(methyl)amino)-1-(5-methylpyrazin-2-yl)propyl)amino)thianthren-1-yl)-4-morpholino pyridin-2(1H)-one]
< 100	Cc1cnc(C(CCN2CCC2)Nc2ccc3c(c2)Sc2cccc(-c4cc(N5CCOCC5)cc(=O)[nH]4)c2S3)cn1 (single isomer, unassigned) [Example 1-51-11, 6-(7-((3-(Azetidin-1-yl)-1-(5-methylpyrazin-2-yl)propyl)amino)thianthren-1-yl)-4-morpholino pyridin-2(1H)-one]
< 100	Cc1ccc(C(Nc2ccc3c(c2)Sc2cccc(-c4cc(N5CCOCC5)cc(=O)[nH]4)c2S3)C2CNCCO2)nc1 (single isomer, unassigned) [Example 1-55-1, 6-(7-(((5-methylpyridin-2-yl)(morpholin-2-yl)methyl)amino)thianthren-1-yl)-4-morpholinopyridin-2(1H)-one]
< 100	Cc1ccc(C(Nc2ccc3c(c2)Sc2cccc(-c4cc(N5CCOCC5)cc(=O)[nH]4)c2S3)C2CNCCO2)nc1 (single isomer, unassigned) [Example 1-55-2, 6-(7-(((5-methylpyridin-2-yl)(morpholin-2-yl)methyl)amino)thianthren-1-yl)-4-morpholinopyridin-2(1H)-one]
< 100	Cc1ccc(C(Nc2ccc3c(c2)Sc2cccc(-c4cc(N5CCOCC5)cc(=O)[nH]4)c2S3)[C@@H]2CCCN2C)nc1 (single isomer, unassigned) [Example 1-56-3]
< 100	Cc1ccc(C(Nc2ccc3c(c2)Sc2cccc(-c4cc(N5CCOCC5)cc(=O)[nH]4)c2S3)[C@H]2CCCN2C)nc1 (single isomer, unassigned) [Example 1-56-5]
< 100	COCCN1CCOC(C(Nc2ccc3c(c2)Sc2cccc(-c4cc(N5CCOCC5)cc(=O)[nH]4)c2S3)c2ccc(C)cn2)C1 (single isomer, unassigned) [Example 1-56-8, 6-(7-(((4-(2-Methoxyethyl)morpholin-2-yl)(5-methylpyridin-2-yl)methyl)amino)thianthren-1-yl)-4-morpholino pyridin-2(1H)-one]
< 100	COCCN1CCOC(C(Nc2ccc3c(c2)Sc2cccc(-c4cc(N5CCOCC5)cc(=O)[nH]4)c2S3)c2ccc(C)cn2)C1 (single isomer, unassigned) [Example 1-56-9, 6-(7-(((4-(2-Methoxyethyl)morpholin-2-yl)(5-methylpyridin-2-yl)methyl)amino)thianthren-1-yl)-4-morpholino pyridin-2(1H)-one]
< 100	Cc1ccc(C(Nc2ccc3c(c2)Sc2cccc(-c4cc(N5CCOCC5)cc(=O)[nH]4)c2S3)[C@@H]2CN(C)CCO2)nc1 (single isomer, unassigned) [Example 1-56-10]
< 100	Cc1ccc(C(Nc2ccc3c(c2)Sc2cccc(-c4cc(N5CCOCC5)cc(=O)[nH]4)c2S3)[C@@H]2CN(C)CCO2)nc1 (single isomer, unassigned) [Example 1-56-11]
< 100	Cc1ccc(C(Nc2ccc3c(c2)Sc2cccc(-c4cc(N5CCOCC5)cc(=O)[nH]4)c2S3)[C@H]2CN(C)CCO2)nc1 (single isomer, unassigned) [Example 1-56-12]
< 100	Cc1ccc(C(Nc2ccc3c(c2)Sc2cccc(-c4cc(N5CCOCC5)cc(=O)[nH]4)c2S3)[C@H]2CN(C)CCO2)nc1 (single isomer, unassigned) [Example 1-56-13]
